Consider 11 molecules from patent USRE31731E, “Herbicidal 4-trifluoromethyl-4-nitrodiphenyl ethers” (priority 1978, dated 1984).

Format in all cases: in vivo
Series [1] deals with Dicots. Kind of series: Herbicidal activity, postemergence, dicot weeds (Table II). Particulars: post-emergence, 336 h, about 2 weeks, read-out: % control (percent of plants killed); for pest or weed control at 2241.7 g/ha: 2 lb./A.; for pest or weed control at 4483.4 g/ha: 4 lb./A. On the procedure:
(§1) Using the procedure described below, diphenyl ethers were evaluated for control of the following weeds: […]
(§2) bindweed (Convolvulus arvensis) curly dock (Remex crispus) velvetleaf (Abutilon theophrasti) wild mustard (Brassica haber)
(§3) At 2 and 4 pounds per acre: […]
(§4) cocklebur (Xanthium pensylvanicum)
(§5) **coffeeweed (Sesbania macrocarpa)
(§6) *curly dock (Rumex crispus)
(§7) *lambsquarters (Chenopodium album) morningglory (Ipomoea purpurea)
(§8) *pigweed (Amaranthus retroflexus)
(§9) **ragweed (Ambrosia artemisiifolia)
(§10) *smartweed (Polygonum pensylvanicum)
(§11) **tomato (Lycopersicon esculentum)
(§12) *wild carrot (Daucus carota)
(§13) *wild mustard (Brassica haber)
(§14) The following test procedure is employed. Seeds of selected crops and weeds are planted in soil in flats. For preemergence tests, the flats are treated with the test compound immediately after the planting. For postemergence tests, the seeds are allowed to germinate, and after 2 weeks the flats are treated with the test compound. The compound to be evaluated is dissolved in acetone, diluted with water, and sprayed over the flats using a carrier volume equivalent to 50 gallons per acre at the rate of application (pounds per acre, lb/A.) specified in the tables. About 2 weeks after the application of the test compound, the state of growth of the plants is observed and the phytotoxic effect of the compound is evaluated. Table II gives the average percent control achieved by the test compounds in terms of the percent of the plants which are killed by the compounds.

The subject of series [2] is corn. Put plainly: Crop tolerance, corn. The following applies: 50% or less kill of crop at rates giving more than 50% kill of weeds. On the procedure:
as §14
(§15) Following the general test procedure of Example 73, diphenyl ethers are evaluated for significant tolerance (as shown by 50% or less kill of the test crop at levels of application which give more than 50% kill of many or all of the weeds of Example 73) towards some or all of the following common agronomic crops (not all compounds tested against all crops): alfalfa, snapbeans, corn, cotton, cucumbers, peanuts, rape, rice, safflower, soybeans, tomatoes, and wheat.

The subject of series [3] is soybeans. Put plainly: Crop tolerance, soybeans. The following applies: preemergence; 50% or less kill of crop at rates giving more than 50% kill of weeds. How it is done:
as §14, §15

Series [4] has as its system rice. Put plainly: Crop tolerance, rice. The following applies: 50% or less kill of crop at rates giving more than 50% kill of weeds. How it is done:
as §14, §15

Series [5] relates to Dicots. Put plainly: Herbicidal activity, preemergence, dicot weeds (Table II). The following applies: pre-emergence, 336 h, about 2 weeks, read-out: % control (percent of plants killed); for pest or weed control at 2241.7 g/ha: 2 lb./A.; for pest or weed control at 4483.4 g/ha: 4 lb./A. How it is done:
as §1, §2, §3, §4, §5, §6, §7, §8, §9, §10, §11, §12, §13, §14

Series [6] concerns Monocots. Kind of series: Herbicidal activity, postemergence, monocot weeds (Table II). Particulars: post-emergence, 336 h, about 2 weeks, read-out: % control (percent of plants killed); for pest or weed control at 2241.7 g/ha: 2 lb./A.; for pest or weed control at 4483.4 g/ha: 4 lb./A. On the procedure:
as §1
(§16) barnyardgrass (Echinochloa crusgalli) crabgrass (Digitaria spp.) nutsedge (Cyperus esculentus)
(§17) At 2 and 4 pounds per acre:
(§18) **Bermudagrass (Cynodon dactylon)
(§19) *downy brome (Bromus tectorum) foxtail (Setaria faberii)
(§20) Johnsongrass (Sorghum halepense) […]
(§21) quackgrass (Agropyron repens)
(§22) *ryegrass (Lolium perenne)
(§23) *yellow millet (Panicum miliaceum)
as §14

The test system of series [7] is Monocots. Put plainly: Herbicidal activity, preemergence, monocot weeds (Table II). Particulars: pre-emergence, 336 h, about 2 weeks, read-out: % control (percent of plants killed); for pest or weed control at 2241.7 g/ha: 2 lb./A.; for pest or weed control at 4483.4 g/ha: 4 lb./A. How it is done: as §1, §16, §17, §18, §19, §20, §21, §22, §23, §14
Series [8] deals with peanuts. Put plainly: Crop tolerance, peanuts. The following applies: 50% or less kill of crop at rates giving more than 50% kill of weeds. On the procedure:
as §14, §15

Setting [9] is: postemergence or on transplanted rice.

As to `O=[N+]([O-])c1ccc(Oc2ccc(C(F)(F)F)cc2Cl)cc1OCC(F)(F)F` [Example 11], the pest or weed control at 2241.7 g/ha turned out to be 100% in series [1], 99% in series [5], 100% in series [6] and 88% in series [7]. The pest or weed control at 4483.4 g/ha amounted to 99% in series [1], 98% in series [5], 82% in series [6] and 81% in series [7]. In addition, the Tolerance to corn result in series [2] (preemergence) was “Tolerance”. The Tolerance to soybeans entry in series [3] is recorded as “Tolerance”. The Tolerance to rice entry in series [4] (setting [9]) is on record as “Tolerance”.
Turning to `CN(C)c1cc(Oc2ccc(C(F)(F)F)cc2Cl)ccc1[N+](=O)[O-]` [Example 20, 2-chloro-α,α,α-trifluoro-p-tolyl-3-dimethylamino-4-nitrophenyl ether], the pest or weed control at 2241.7 g/ha in series [1] amounted to 97%; in series [5], 93%; in series [6], 80%; in series [7] it was 80%. The pest or weed control at 4483.4 g/ha stood at 88% in series [1], 99% in series [5], 78% in series [6] and 88% in series [7]. Besides, in series [4] (setting [9]), the Tolerance to rice entry is listed as “Tolerance”.
Consider `O=[N+]([O-])c1ccc(Oc2ccc(C(F)(F)F)cc2Cl)cc1Cl` [Example 37, 2-chloro-α,α,α-trifluoro-p-tolyl-3-chloro-4-nitrophenyl ether], for which, in series [8] (postemergence), the Tolerance to peanuts result is recorded as “Tolerance”. Also, the pest or weed control at 2241.7 g/ha in series [1], in series [5], in series [6] and in series [7] was 100% each time. Also, the pest or weed control at 4483.4 g/ha in series [1] worked out at 100%; in series [5], 100%; in series [6] it was 92%; in series [7] it was 99%.
For `CCSC(=O)Nc1cc(Oc2ccc(C(F)(F)F)cc2Cl)ccc1[N+](=O)[O-]` [Example 45], the pest or weed control at 2241.7 g/ha is 78% in series [1], 77% in series [5], 53% in series [6] and 68% in series [7]. Further, the pest or weed control at 4483.4 g/ha in series [1] came to 88%; in series [5], 58%; in series [6] it was 17%; in series [7], 13%.
As to `CCSC(=O)N(C(=O)SCC)c1cc(Oc2ccc(C(F)(F)F)cc2Cl)ccc1[N+](=O)[O-]` [Example 46], the pest or weed control at 2241.7 g/ha in series [1] turned out to be 4%; in series [5] it was 87%; in series [6], 0%; in series [7], 34%. Besides, the pest or weed control at 4483.4 g/ha amounted to 30% in series [1], 20% in series [5], 0% in series [6] and 0% in series [7].
As to `N#Cc1cc(Oc2ccc(C(F)(F)F)cc2Cl)ccc1[N+](=O)[O-]` [Example 47, 2-Chloro-α,α,α-trifluoro-p-tolyl-3-cyano-4-nitrophenyl ether], the pest or weed control at 2241.7 g/ha in series [1] was found to be 84%; in series [5], 80%; in series [6], 24%; in series [7], 80%. For the same molecule, the pest or weed control at 4483.4 g/ha worked out at 72% in series [1], 40% in series [5], 11% in series [6] and 61% in series [7].
In the case of `COC(=O)c1cc(Oc2ccc(C(F)(F)F)cc2Cl)ccc1[N+](=O)[O-]` [Example 49, 2-chloro-α,α,α-trifluoro-p-tolyl-3-carbomethoxy-4-nitrophenyl ether], the Tolerance to peanuts result in series [8] (preemergence) is “Tolerance”. Further, the pest or weed control at 2241.7 g/ha came out at 100% in series [1], 100% in series [5], 77% in series [6] and 100% in series [7]. In addition, the pest or weed control at 4483.4 g/ha in series [1] worked out at 100%; in series [5] it was 95%; in series [6], 86%; in series [7], 92%. In series [2] (postemergence), the Tolerance to corn entry is listed as “Tolerance”. Besides, the Tolerance to soybeans result in series [3] is “Tolerance”.
`CC(Oc1cc(Oc2ccc(C(F)(F)F)cc2Cl)ccc1[N+](=O)[O-])C(N)=O` (stereo not drawn) [Example 51, 2-chloro-α,α,α-trifluoro-p-tolyl-3-(1-carbamoylethoxy)-4-nitrophenyl ether]: the pest or weed control at 2241.7 g/ha in series [1] amounted to 98%; in series [5], 100%; in series [6], 86%; in series [7], 96%. Moreover, the pest or weed control at 4483.4 g/ha was 100% in series [1], 100% in series [5], 75% in series [6] and 79% in series [7].
Take `CNC(=O)C(C)Oc1cc(Oc2ccc(C(F)(F)F)cc2Cl)ccc1[N+](=O)[O-]` (centres unmarked) [Example 52]: the Tolerance to peanuts result in series [8] (preemergence) is listed as “Tolerance”. The pest or weed control at 2241.7 g/ha in series [1] was found to be 100%; in series [5], 75%; in series [6], 93%; in series [7], 98%. Moreover, the pest or weed control at 4483.4 g/ha was determined as 100% in series [1], 67% in series [5], 87% in series [6] and 79% in series [7]. The Tolerance to corn entry in series [2] (postemergence) and in series [2] (preemergence) was “Tolerance” each time. Moreover, in series [3], the Tolerance to soybeans result is “Tolerance”. Moreover, the Tolerance to rice result in series [4] (preemergence) is on record as “Tolerance”.
For `CC(Oc1cc(Oc2ccc(C(F)(F)F)cc2Cl)ccc1[N+](=O)[O-])C(=O)N(C)C` (centres unmarked) [Example 53], the Tolerance to peanuts result in series [8] (postemergence) and in series [8] (preemergence) was “Tolerance” in each case. Further, the pest or weed control at 2241.7 g/ha is 100% in series [1], 100% in series [5], 81% in series [6] and 98% in series [7]. Besides, the pest or weed control at 4483.4 g/ha turned out to be 100% in series [1], 83% in series [5], 79% in series [6] and 98% in series [7]. Further, in series [2] (postemergence), the Tolerance to corn entry was “Tolerance”. Besides, the Tolerance to soybeans entry in series [3] is on record as “Tolerance”. Moreover, the Tolerance to rice entry in series [4] (setting [9]) is “Tolerance”.
With `CCN(C(=O)NC)c1cc(Oc2ccc(C(F)(F)F)cc2Cl)ccc1[N+](=O)[O-]` [Example 55, 2-Chloro-α,α,α-trifluoro-p-tolyl-3-(3-methyl-1-ethylureido)-4-nitrophenyl ether], the values for the pest or weed control at 2241.7 g/ha in series [1] and in series [6] were 96% and 31%, respectively. Moreover, the pest or weed control at 4483.4 g/ha in series [1] came out at 95%; in series [5] it was 73%; in series [6] it was 69%; in series [7] it was 91%.
